Assay results as given in patent US20100015042A1, “Combine radiation therapy and chemotherapy for treating cancer” (priority 2008, published 2010).

Key:
[1] = test system: CT26 colon carcinoma tumors; assay: Colon carcinoma tumor growth and cure, two 224Ra wires with 5-FU; format: in vivo, Balb/c mice; conditions: 5-FU 75 mg/kg 24 hours prior to wires; tumors 6-7 mm in diameter
Method: FIG. 7 is a graph showing the effect of two ^224Ra-loaded wires combined with 5-FU treatment on colon cancers. Treatment was applied to Balb/c mice bearing 6-7 mm in diameter tumors. Two ^224Ra wires: Tumor bearing mice treated with 2 ^224Ra wires, carrying activities in the range of 27.9-35.5 kBq (n=5). Two ^224Ra wires combined with 5-FU: administration of 75 mg/kg 5-FU 24 hours prior to treatment with 2 ^224Ra wires, carrying activities in the range of 32.1-33.8 kBq (n=5). Two Inert wires combined with 5-FU: administration of 75 mg/kg 5-FU 24 hours prior to treatment with 2 inert wires (n=6). Two Inert wires: Tumor bearing mice treated with 2 inert wires (n=6).
Tumor cell inoculation: Animals were inoculated intra-cutaneously with 5·10^5 SQ2 cells in 0.2 ml HBSS or 10^5 (CT26 and Panc-02) in 0.1 ml of HBSS (Biological industries, Beit haemek, Israel) into the low lateral side of the back. Local tumor growth was determined by measuring three mutually orthogonal tumor diameters with a digital caliper (Mitutoyo, Japan). The volume of tumor was calculated using the formula: V=(π/6)·D1D2D3, where D1, D2, D3 stand for the measured diameters […]

SQ2 cells = assay: XTT cell proliferation assay on radioactive (224Ra-implanted) microplates; format: cell-based, mouse
Method: Tumors: SQ2 cell line is a murine anaplastic cell line, which was generated from a SCC tumor that has developed spontaneously in a male BALB/c mouse. Panc02 is a murine pancreatic carcinoma cell line. CT26 cells is a N-nitroso-N-methylurethane-(NNMU) induced, undifferentiated colon carcinoma cell line which was purchased from the ATCC (CRL-2638). All cells were grown in Dulbecco's Modified Eagle Medium (DMEM) supplemented with 10% Fetal Calf Serum (Biological Industries, Beit Haemek, Israel), L-glutamine (2 mM), Penicillin (100 U/ml) and Streptomycin (100 μg/ml). […]
Cell proliferation assay: The antiproliferative effects of alpha particles and cisplatin, alone and in combination, were determined using a 3-bis (2-methoxy-4-nitro-5 sulfenyl)-(2H)-tetrazolium-5-carboxanilide (XTT) assay (Cell Proliferation Kit, Biological industries, Beit-haemek, Israel). […] After two hours of incubation, absorbance was analyzed using an automated spectrophotometer (VersaMax, Molecular Devices, USA) at 475 nm wavelength.
SQ2 cells were plated in 96 well plates implanted with ^224Ra atoms (0, 0.02, 0.063, 0.2, 0.63 and 2 Bq/mm^2, radioactive microplates). […] Cell numbers were assessed by the XTT assay 24, 48, and 72 hrs of incubation and expressed as percent of non-treated control cells.

SQ2 tumors = assay: Tumor growth and survival, two 224Ra wires at the tumor base with two cisplatin doses; format: in vivo, BALB/c mice
Method: Tumor cell inoculation: Animals were inoculated intra-cutaneously with 5·10^5 SQ2 cells in 0.2 ml HBSS or 10^5 (CT26 and Panc-02) in 0.1 ml of HBSS (Biological industries, Beit haemek, Israel) into the low lateral side of the back. Local tumor growth was determined by measuring three mutually orthogonal tumor diameters with a digital caliper (Mitutoyo, Japan). The volume of tumor was calculated using the formula: V=(π/6)·D1D2D3, where D1, D2, D3 stand for the measured diameters
Wire insertion: Wires, either loaded with ^224Ra or inert, cut to a length of 5-6 mm, were placed near the tip of a 23G needle attached to a 2.5 ml syringe (Picindolor, Rome, Italy) and inserted into the tumor by a plunger placed internally along the syringe axis.
Statistical analysis: The statistical significance (p-value) of the differences between tumor volumes in the various groups was assessed by applying Student's two-sided t-test and repeated measures ANOVA. Survival analysis (Mantel-Cox test) was carried out using Statsoft Statistica 7.0.
The following experiment was performed in order to examine the effect of two ^224Ra wires inserted horizontally to the base of each tumor in combination with 2 doses of chemotherapy. The cisplatin was administered using the same regime as that described in Example 3.
A pronounced difference between tumor volumes of the irradiated group (^224Ra wires) and the animals treated with Cisplatin (CP) can be seen 10 days following DART treatment. […] Moreover, when analyzing the results of the group treated with the combination of Cisplatin and ^224Ra wires, it appears that a major growth inhibition was achieved when both modalities were administrated concomitantly. […] Twenty-four days following DART treatment, the average tumor volumes of the combined treatment group was 14 fold smaller compared to the inert control group (300 mm^3 and 4286 mm^3 respectively), and 3 fold smaller compared to the best effect achieved by the radioactive wires alone (924 mm^3). […]

[2] = test system: lung metastases of SQ2 tumors; assay: Histological assessment of lung metastatic load; format: in vivo, BALB/c mice; conditions: treatment given alone, day 26, compared to inert wires
Method: Histology: Histological analysis was performed on BALB/c mice lungs, both treated and untreated. Immediately following their removal, lungs were fixed by a 4% formaldehyde solution (Sigma, Rehovot, Israel) for at least 24 hrs. The preserved specimens were embedded in paraffin, and sections (5-10 μm) were stained with hematoxylin-eosin (H&E) (Surgipath, Richmond, USA) and analyzed for metastases detection. Metastatic burden quantification was performed by summing the gray values of all the pixels in the region of interest (ROI) divided by the number of pixels using image J free software [http://rsbdotinfodotnihdotgov/ij/].
Histological assessment of lung sections was conducted in order to investigate the effect of the destruction of the primary tumor by DART wires on the development of metastases with or without the addition of cisplatin. Each 4 groups (Inert, ^224Ra wires, CP, CP+^224Ra wires) contained 3 animals. Animals were sacrificed at day 26 (lung metastases has been observed in this model at this time in previous studies) and lungs were harvested and processed for histological analysis and compared to normal lung tissues taken from healthy BALB/c mice. FIG. 5C describes the inhibition of lung metastatic load in mice treated with both intratumoral alpha irradiation and chemotherapy when compared to lungs of mice treated with inert wires.

Compound | No. of animals with tumors following treatment [1] | proliferation inhibition (SQ2 cells; 0.3 μM cisplatin alone, 72 hours) [%] | antiproliferative effect (SQ2 cells; 3 and 30 μM, drug alone) [%] | average tumor volume, fold greater than the DART treated group (SQ2 tumors; 32 days after tumor cell inoculation, cisplatin 2 x 5 mg/kg vs two 224Ra wires) [fold] | prolongation of average survival compared to inert group (SQ2 tumors; two wires, cisplatin 2 x 5 mg/kg) [%] | mean survival (SQ2 tumors; two wires, cisplatin 2 x 5 mg/kg, inert control 43.92 days) [days] | effect on lung metastatic burden (in words) [2]
O=c1[nH]cc(F)c(=O)[nH]1 [Two inert wires and 5-FU, 5-fluorouracil] | 6/6 with |  |  |  |  |  | 
N.N.[Cl][Pt][Cl] [cisplatin] |  | 21 | > 60 | 2.14 | 17 | 51.38 | decreased metastatic burden although less than the combined treatment
